Reference: patent publication US20250380697A1, “ISOXAZOLINE DERIVATIVE COMPOUND AND INSECTICIDAL COMPOSITION COMPRISING SAME” (KYUNG NONG CORPORATION, priority 2022, published 2025)
Read-outs that look alike come from different tables or passages of the source.

What was measured:
Format in all cases: in vivo
[1] = system: Plutella xylostella; assay: Pesticidal activity against Plutella xylostella, leaf-dipping method; conditions: read-out: larvae mortality rate against Plutella xylostella
Description: Cabbage (Daiya) leaves were cut into pieces with a diameter of 5.8 cm, dipped in each of the pesticide compositions prepared in Examples (a 5% acetone solution in which each of the compounds of Synthesis Examples (concentration: 100 ppm) was diluted) for 30 seconds, and sufficiently shade-dried. Then, the shade-dried cabbage leaves were placed in a petri dish (8.8 cm in diameter) covered with a filter paper and repeatedly inoculated 3 times with third instar larvae of Plutella xylostella, 10 larvae per inoculation. In particular, Plutella xylostella larvae used were those which were collected in a place near Gyeongju (Korea) in 2000 and bred in a breeding room for multiple generations. Then, the Plutella xylostella larvae were stored under the conditions of 16 hours of light and 8 hours of dark, 25±1° C., and relative humidity of 50-60%, and the number of live Plutella xylostella larvae was counted 48 hours after the inoculation. Thereafter, the larvae mortality rate was calculated by correcting the density after treatment based on the density before treatment, as shown in Equation 1 and Equation 2 below, and converting the same into the corrected mortality rate for untreated (Reference: A method of computing the effectiveness of an insecticide. J. Econ. Entomol. 18:265˜267. Abbott, 1925).

[2] = system: Spodoptera litura; assay: Pesticidal activity against Spodoptera litura, leaf-dipping method; conditions: read-out: mortality rate against Spodoptera litura
Description: Cabbage (Daiya) leaves were cut into pieces with a diameter of 5.8 cm, dipped in each of the pesticide compositions prepared in Examples (a 5% acetone solution in which each of the compounds of Synthesis Examples (concentration: 100 ppm) was diluted) for 30 seconds, and sufficiently shade-dried. Then, the shade-dried cabbage leaves were placed in a petri dish (8.8 cm in diameter) covered with a filter paper and repeatedly inoculated 3 times with the second instar larvae of Spodoptera litura, 10 larvae per inoculation. In this case, Spodoptera litura larvae used were those which were purchased from the Bio Utilization Institute (Andong, Korea). Then, the Spodoptera litura larvae were stored under the conditions of 16 hours of light and 8 hours of dark, 25±1° C., and relative humidity of 50-60%, and the number of live Spodoptera litura larvae was counted 48 hours after the inoculation. Thereafter, the larvae mortality rate was calculated in the same manner as in Test Example 1 above.

[3] = system: Frankliniella occidentalis; assay: Pesticidal activity against Frankliniella occidentalis, spray method; conditions: read-out: mortality rate against Frankliniella occidentalis
From the text: A water-soaked filter paper (9.0 cm in diameter) was placed in an insect breeding dish (Lab Guide®) with a diameter of 9.0 cm and a height of 4.0 cm, and then parafilm (width 4.0 cm×height 4.0 cm) was placed thereon. Before treating with a pesticide composition, 10 adult Frankliniella occidentalis were inoculated per petri dish using a No. 4 brush. In this case, Frankliniella occidentalis adults used were those purchased from the Bio Utilization Institute (Andong, Korea). Then, each of the pesticide compositions prepared in Examples (a diluted solution in which each of the compounds of Synthesis Examples (concentration: 100 ppm) was diluted; the solvent=distilled water+acetone 50,000 mg/L+Triton X-100 100 mg/L) was loaded into a 100 mL small sprayer, and sprayed 10-12 times at a distance of 30 cm and a height of 50 cm, and one cotyledons of soybean, which is a host plant, were added one at a time. Then, the Frankliniella occidentalis adults were stored under the conditions of 16 hours of light and 8 hours of darkness, 25±1° C., and relative humidity of 50-60%, and the number of live Frankliniella occidentalis adults was counted 48 hours after the inoculation. Thereafter, the larvae mortality rate was calculated in the same manner as in Test Example 1 above.

Measured: mortality at 100 ppm

Cc1cc(C2=NOC(c3cc(Cl)cc(Cl)c3)(C(F)(F)F)C2)ccc1C(=O)NC(=O)C1(C)CC1 (stereo not drawn) [Synthesis Example 24]
≥ 80%: [1]; 48 h | [2]; 48 h | [3]; 48 h

CCN(C(=O)c1ccc(C2=NOC(c3cc(Cl)cc(C(F)(F)F)c3)(C(F)(F)F)C2)cc1C)C(=O)C1CC1 (stereo not drawn) [Synthesis Example 19]
≥ 80%: [1]; 48 h | [2]; 48 h | [3]; 48 h

Cc1cc(C2=NOC(c3cc(Cl)cc(Cl)c3)(C(F)(F)F)C2)ccc1C(=O)NC(=O)CC1CC1 (stereo not drawn) [Synthesis Example 55]
≥ 80%: [1]; 48 h | [2]; 48 h | [3]; 48 h

Cc1cc(C2=NOC(c3cc(Cl)cc(Cl)c3)(C(F)(F)F)C2)ccc1C(=O)NC(=O)C1CCCCC1 (stereo not drawn) [Synthesis Example 39]
≥ 80%: [1]; 48 h | [2]; 48 h | [3]; 48 h

Cc1cc(C2=NOC(c3cc(Cl)cc(C(F)(F)F)c3)(C(F)(F)F)C2)ccc1C(=O)NC(=O)CC1CC1 (stereo not drawn) [Synthesis Example 75]
≥ 80%: [1]; 48 h | [2]; 48 h | [3]; 48 h

Cc1cc(C2=NOC(c3cc(Cl)cc(Cl)c3)(C(F)(F)F)C2)ccc1C(=O)NC(=O)C1CC1(F)F (stereo not drawn) [Synthesis Example 50]
≥ 80%: [1]; 48 h | [2]; 48 h | [3]; 48 h

Cc1cc(C2=NOC(c3cc(Cl)cc(C(F)(F)F)c3)(C(F)(F)F)C2)ccc1C(=O)N(C(=O)C1CC1)C1CC1 (stereo not drawn) [Synthesis Example 23]
≥ 80%: [1]; 48 h | [2]; 48 h | [3]; 48 h

Cc1cc(C2=NOC(c3cc(Cl)cc(Cl)c3)(C(F)(F)F)C2)ccc1C(=O)NC(=O)C1(C)CC1(F)F (stereo not drawn) [Synthesis Example 30]
≥ 80%: [1]; 48 h | [2]; 48 h | [3]; 48 h

O=C(NC(=O)C1CC1)c1ccc(C2=NOC(c3cc(Cl)cc(C(F)(F)F)c3)(C(F)(F)F)C2)cc1Cl (stereo not drawn) [Synthesis Example 9]
≥ 80%: [1]; 48 h | [2]; 48 h | [3]; 48 h

Cc1cc(C2=NOC(c3cc(Cl)cc(C(F)(F)F)c3)(C(F)(F)F)C2)ccc1C(=O)NC(=O)c1cc(C2CC2)on1 (stereo not drawn) [Synthesis Example 84]
≥ 80%: [1]; 48 h | [2]; 48 h | [3]; 48 h

O=C(NC(=O)C1CC1)c1ccc(C2=NOC(c3cc(Cl)cc(C(F)(F)F)c3)(C(F)(F)F)C2)c2ccccc12 (stereo not drawn) [Synthesis Example 6]
≥ 80%: [1]; 48 h | [2]; 48 h | [3]; 48 h

Cc1cc(C2=NOC(c3cc(Cl)cc(Cl)c3)(C(F)(F)F)C2)ccc1C(=O)NC(=O)C1CC12CCC2 (stereo not drawn) [Synthesis Example 52]
≥ 80%: [1]; 48 h | [2]; 48 h | [3]; 48 h

Cc1cc(C2=NOC(c3cc(Cl)cc(C(F)(F)F)c3)(C(F)(F)F)C2)ccc1C(=O)NC(=O)C1(C#N)CC1 (stereo not drawn) [Synthesis Example 27]
≥ 80%: [1]; 48 h | [2]; 48 h | [3]; 48 h

Cc1cc(C2=NOC(c3cc(Cl)cc(Cl)c3)(C(F)(F)F)C2)ccc1C(=O)NC(=O)c1ccno1 (stereo not drawn) [Synthesis Example 81]
≥ 80%: [1]; 48 h | [2]; 48 h | [3]; 48 h

Cc1cc(C2=NOC(c3cc(Cl)cc(Cl)c3)(C(F)(F)F)C2)ccc1C(=O)N(C)C(=O)C1CC1 (stereo not drawn) [Synthesis Example 13]
≥ 80%: [1]; 48 h | [2]; 48 h | [3]; 48 h

Cc1cc(C2=NOC(c3cc(Cl)cc(C(F)(F)F)c3)(C(F)(F)F)C2)ccc1C(=O)NC(=O)N1CCCCC1 (stereo not drawn) [Synthesis Example 67]
≥ 80%: [1]; 48 h | [2]; 48 h | [3]; 48 h

Cc1cc(C2=NOC(c3cc(Cl)cc(Cl)c3)(C(F)(F)F)C2)ccc1C(=O)NC(=O)C1(C(F)(F)F)CC1 (stereo not drawn) [Synthesis Example 28]
≥ 80%: [1]; 48 h | [2]; 48 h | [3]; 48 h

Cc1cc(C2=NOC(c3cc(Cl)cc(Cl)c3)(C(F)(F)F)C2)ccc1C(=O)NC(=O)C1CC1C1CC1 (stereo not drawn) [Synthesis Example 53]
≥ 80%: [1]; 48 h | [2]; 48 h | [3]; 48 h

Cc1cc(C2=NOC(c3cc(Cl)cc(Cl)c3)(C(F)(F)F)C2)ccc1C(=O)NC(=O)c1cn(C)nc1C(F)(F)F (stereo not drawn) [Synthesis Example 47]
≥ 80%: [1]; 48 h | [2]; 48 h | [3]; 48 h

C/C=C/C=C/C(=O)NC(=O)c1ccc(C2=NOC(c3cc(Cl)cc(C(F)(F)F)c3)(C(F)(F)F)C2)cc1C (stereo not drawn) [Synthesis Example 72]
≥ 80%: [1]; 48 h | [2]; 48 h | [3]; 48 h

Cc1cc(C2=NOC(c3cccc(C#N)c3)(C(F)(F)F)C2)ccc1C(=O)NC(=O)C1CC1 (stereo not drawn) [Synthesis Example 4]
≥ 80%: [1]; 100 ppm, leaf-dipping, third instar larvae, 48 hours after inoculation | [2]; 100 ppm, leaf-dipping, second instar larvae, 48 hours after inoculation | [3]; 100 ppm, spray, adults, 48 hours after inoculation

Cc1cc(C2=NOC(c3cc(Cl)cc(C(F)(F)F)c3)(C(F)(F)F)C2)ccc1C(=O)N(CC(F)(F)F)C(=O)C1CC1 (stereo not drawn) [Synthesis Example 20]
≥ 80%: [1]; 48 h | [2]; 48 h | [3]; 48 h

Cc1cc(C2=NOC(c3cc(Cl)cc(Cl)c3)(C(F)(F)F)C2)ccc1C(=O)NC(=O)c1ccco1 (stereo not drawn) [Synthesis Example 58]
≥ 80%: [1]; 48 h | [2]; 48 h | [3]; 48 h

Cc1cc(C2=NOC(c3cc(Cl)cc(C(F)(F)F)c3)(C(F)(F)F)C2)ccc1C(=O)NC(=O)c1ccno1 (stereo not drawn) [Synthesis Example 83]
≥ 80%: [1]; 48 h | [2]; 48 h | [3]; 48 h

Cc1cc(C2=NOC(c3cc(Cl)cc(Cl)c3)(C(F)(F)F)C2)ccc1C(=O)NC(=O)C1CCCC1 (stereo not drawn) [Synthesis Example 68]
≥ 80%: [1]; 48 h | [2]; 48 h | [3]; 48 h

Cc1cc(C2=NOC(c3cc(Cl)cc(C(F)(F)F)c3)(C(F)(F)F)C2)ccc1C(=O)NC(=O)c1ccco1 (stereo not drawn) [Synthesis Example 59]
≥ 80%: [1]; 48 h | [2]; 48 h | [3]; 48 h

Cc1cc(C2=NOC(c3cc(Cl)cc(Cl)c3)(C(F)(F)F)C2)ccc1C(=O)NC(=O)c1cn(C)nc1C(F)F (stereo not drawn) [Synthesis Example 45]
≥ 80%: [1]; 48 h | [2]; 48 h | [3]; 48 h
